Measurements: patent publication US11517575B2, “Use of minaprine to reduce tumor growth” (Institut Gustave-Roussy, priority 2019, dated 2022)

System: HCT116 cells
Test: Screening of chemical libraries for IR-mediated cellular cannibalism (imaging flow cytometry, confocal validation)
Format: cell-based, human
Settings: for enhancement of IR-mediated cellular cannibalism: 8 Gy irradiated HCT116 cells, 10 μM compound, 24 h culture, dihydrochloride
Procedure: FIG. 4 Identification of cannibalism modulators triggered by ionizing radiation. Compounds from the Prestwick (A) and CEA (F) libraries were tested for their capacities to induce cellular cannibalism after ionizing radiation. Cannibal cells were detected after homotypic cultures of 8 gray γ-irradiation HCT116 cells in the presence or absence of 10 μM of the Prestwick (A) and CEA […] library compounds. Each dot represents one compound. Representative images are shown in (B, G). (C, H) HCT116 cells were treated with the indicated drugs. After 24 h of treatment, cell death was monitored by staining with 3,3 dihexyloxacarbocyanine iodide (DiOC6(3)) and PI^+, and the percentage of dying (DiOC6(3)^low PI^−, open bars) and dead (DiOC6(3)^low PI^+, closed bars) cells was determined by cytofluorometry. Validation of the cannibalism inducers by fluorescent microscopy. Representative images (D, I) and quantification (E, J) are shown. Results are means s.e.m. of triplicate determinations.
Untreated HCT116 cells were labeled with CMFDA (green fluorescence, CMFDA^+) or CMTMR, (red fluorescence, CMTMR) and treated HCT116 cells with CMFDA (green fluorescence, CMFDA^+). The following cell mixtures were performed: untreated CMTMR^+ HCT116 cells were mixed with untreated CMFDA^+ HCT116 cells, or untreated CMTMR^+ HCT116 cells were mixed with treated CMFDA^+ HCT116 cells. Then, cells were co-cultured during 24 hours in the presence or absence of the pharmacological inhibitor of ROCK, Y27632 (30 μM), the pan-caspase inhibitor, Z-VAD-fmk (ZVAD, 100 μM), the inhibitor of caspase-1, Ac-YVAD-cmk (YVAD, 100 μM), the necroptosis inhibitor, Necrostatin-1 (NEC1, 30 μM), the inhibitor of the vacuolar type H(+)-ATPase (V-ATPase) inhibiting autophagy, Bafilomycin A1 (BafA1, 50 nM), the inhibitor of Cdks with an anti-mitotic activity, Roscovitine (Rosco, 10 μM). After 24 hours of co-culture, both detached and adherent cells were collected and stained with Hoechst […] (10 μg/mL) during 1 hour at 37° C. in warmed complete medium. To detect phosphatidylserine (PS) exposure and plasma membrane permeability, labeled HCT116 cells were successively incubated with Biotin-AnnexinV (BD Pharmingen) as recommended by manufacturer, […] BV786-Streptavidin (BD Biosciences) and 3 μM DRAQ7 (BioStatus) during 15 minutes at 25° C. After washing with PBS solution, samples were immediately analyzed using an imaging flow cytometer FlowSight® (Amnis®, part of EMD Millipore). Data were acquired at a 20× magnification, using INSPIRE software. The 405 nm, 488 nm, and 561 nm lasers were used for excitation. Brightfield, Annexin V-BV786, DRAQ7, CMFDA, CMTMR and Hoechst […] stainings were detected using respectively channels for 420-480 nm, 745-800 nm, 642-745 nm, 480-560 nm, 595-642 nm and 430-505 nm. At least 1000 events of cells per sample were analyzed. Additional single-labeled controls were prepared to normalize fluorescent signal across different channels. Acquired data were analyzed using the IDEAS analysis software (v6.1; Merck-Millipore). Gating strategy was the following. Cells were gated for focused cells using the Gradient RMS feature. Cells were gated for single cells using the aspect ratio and area features. For the cannibalism detection, cells were gated in the double positive CMFDA^+ and CMTMR^+ staining.
To detect PS exposure, plasma membrane permeability and cell cycle progression, cells were after co-culture sequentially labeled with specific fluorescent probes (such as FITC-conjugated AnnexinV, propidium iodide, and Hoechst 33342) and analyzed by flow cytometry. Both detached and adherent cells were collected and stained with Hoechst […] (10 μg/ml) during 1 hour at 37° C. in warmed complete medium. After washing with PBS, HCT116 cells were suspended in 1× binding buffer supplemented with fluorescein isothiocyanate (FITC)-conjugated Annexin V (BD Biosciences) and propidium iodide (PI, 1 μg/mL) (Sigma), as per manufacturer's instructions. […]

Compound: Cc1cc(-c2ccccc2)nnc1NCCN1CCOCC1.Cl.Cl [Minaprine dihydrochloride]
- enhancement of IR-mediated cellular cannibalism: efficient cellular cannibalism enhancer
- enhancement of IR-mediated cellular cannibalism (listed as Minaprine): significantly increased in presence of ionizing radiation
- induction of cellular cannibalism (Type IV cell death) (cancer cells treated with compound, without IR): favors the induction of Type IV cell death modality
